According to article PMC2844520 (The AAPS journal, 2010):
Values belong to the molecule of their own block, whether it stands above or below them.

Assays:
[1] = biological target: T1, Monoacylglycerol lipase (MAGL) (Mus musculus, UniProt O35678); test: inhibition of 3H-2-OG hydrolysis in MAGL-transfected COS-7 lysate; type: biochemical
T1 sequence (O35678 1-303): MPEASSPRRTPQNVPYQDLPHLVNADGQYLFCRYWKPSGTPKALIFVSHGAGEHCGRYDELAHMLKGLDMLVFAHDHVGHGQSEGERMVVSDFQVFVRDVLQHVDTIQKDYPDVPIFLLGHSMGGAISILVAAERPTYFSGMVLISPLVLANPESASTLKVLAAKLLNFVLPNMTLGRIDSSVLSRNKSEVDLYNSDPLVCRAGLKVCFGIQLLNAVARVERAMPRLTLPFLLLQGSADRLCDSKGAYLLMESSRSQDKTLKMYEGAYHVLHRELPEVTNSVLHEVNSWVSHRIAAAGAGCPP

[2] = substrate: CCCCC/C=C\C/C=C\C/C=C\C/C=C\CCCC(=O)SCC(O)CO; type: biochemical, Mus musculus; settings: hydrolysis abolished by mutation of catalytic serine […] to alanine

IC50 [1]: 0.0457 µM
Molecule: CCCCC/C=C\C/C=C\C/C=C\C/C=C\CCCCN1C(=O)C=CC1=O [NAM, N-arachidonyl maleimide]

B1: Monoacylglycerol lipase (MAGL) (Mus musculus) (protein)
chain: T1 sequence (O35678 1-303)
Km [2]: 67.9 µM
